Assay [1] has as its target T1, cyclooxygenase (Ovis aries, UniProt P05979).
T1 construct: sheep seminal vesicle microsome, which is a crude enzyme solution; from tissue; host or cells: sheep seminal vesicle microsomes (crude enzyme solution)
T1 sequence (P05979 25-600): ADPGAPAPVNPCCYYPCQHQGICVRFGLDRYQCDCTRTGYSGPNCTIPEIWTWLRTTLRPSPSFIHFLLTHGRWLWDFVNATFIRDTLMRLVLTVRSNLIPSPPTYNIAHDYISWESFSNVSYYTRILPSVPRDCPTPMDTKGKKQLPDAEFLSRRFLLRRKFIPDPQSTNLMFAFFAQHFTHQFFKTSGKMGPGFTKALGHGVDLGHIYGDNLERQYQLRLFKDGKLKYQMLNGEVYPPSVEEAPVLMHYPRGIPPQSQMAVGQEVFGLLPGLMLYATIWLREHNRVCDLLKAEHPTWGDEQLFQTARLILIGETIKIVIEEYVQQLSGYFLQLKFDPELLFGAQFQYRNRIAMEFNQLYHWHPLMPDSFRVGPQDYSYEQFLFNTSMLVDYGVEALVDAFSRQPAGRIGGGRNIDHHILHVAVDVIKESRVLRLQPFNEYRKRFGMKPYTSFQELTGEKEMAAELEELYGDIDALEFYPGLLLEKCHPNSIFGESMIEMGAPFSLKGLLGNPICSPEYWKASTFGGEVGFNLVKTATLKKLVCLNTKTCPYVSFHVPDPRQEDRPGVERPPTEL
As to the kind of experiment: Cyclooxygenase inhibitory activity test 1 (sheep seminal vesicle microsome, 14C-arachidonic acid). It is filed as biochemical. Here is the method: Cyclooxygenase inhibitory activity test 1:
The preparation of sheep seminal vesicle microsome, which is a crude enzyme solution, and the analysis of the cyclooxygenase activity were carried out according to the method of Miyamoto et al. as follows [cf. Proc. Natl. Acad. Sci., U.S.A., 71, 3645 (1974) and J. Biol. Chem., 251, 2629 (1976)].
(§1) That is, a test compound was added to a microsome solution, and the mixture was incubated at 24° C. for two minutes, and then, thereto was added a substrate, ^14 C-arachidonic acid. The mixture was further incubated for two minutes, and the reaction was quenched with a mixture of ether/methanol/0.2M citric acid (30:4:1), and extracted to collect a product produced by cyclooxygenase. The extract was spotted on a thin layer plate and the plate was developed. The fractions containing the arachidonic acid, prostaglandin E2 (PGE2) and the other parts were collected by scratching, respectively. Each part was measured with a scintillation counter, by which the cyclooxygenase activity therein was estimated.
The compounds prepared in Examples 2, 38, 44 and 46 were tested in the above experiment, and there were obtained the concentrations of the test compounds required to reduce the cyclooxygenase activity to 50% (cyclooxygenase inhibitory rate; IC50 value).

In assay [2] the target is T1, cyclooxygenase. As to the kind of experiment: Cyclooxygenase inhibitory activity test 2 (fixed concentration, sheep seminal vesicle microsome). Conditions: same fixed concentration, 3×10^-7 M; PGE2 producing rate compared with control group. In kind it is biochemical. The protocol: The preparation of sheep seminal vesicle microsome, which is a crude enzyme solution, and the analysis of the cyclooxygenase activity were carried out according to the method of Miyamoto et al. as follows [cf.
as §1

These results are taken from US5688949A, “Pyrazolo[1,5-A]pyrimidine derivatives and anti-inflammatory agent containing the same” (Otsuka Pharmaceutical Factory, Inc., priority 1991, dated 1997).

On to `Cc1cc(Nc2cc(C(C)(C)C)c(O)c(C(C)(C)C)c2)n2nccc2n1` [Example 2, 5-methyl-7-(3,5-di-t-butyl-4-hydroxyphenyl)aminopyrazolo[1,5-a]pyrimidine], for which the “IC50 value relative to that of indomethacin ("times as high as that of indomethacin")” value at cyclooxygenase [1] (reference compound indomethacin) was 27.8 times. On cyclooxygenase [1] (sheep seminal vesicle microsome, 24° C., two minutes preincubation, two minutes with 14C-arachidonic acid, read-out: IC50 value (concentration required to reduce the cyclooxygenase activity to 50%)), the IC50 amounted to 300 nM. The compound further showed an inhibition at 0.3 µM at cyclooxygenase [2] of 65%.
Compound `CCCCc1cc(Nc2cc(C(C)(C)C)c(O)c(C(C)(C)C)c2)n2nccc2n1` [Example 38] registered an inhibition at 0.3 µM against cyclooxygenase [2] of 48.2%.
For the compound `CCc1cc(Nc2cc(C(C)(C)C)c(O)c(C(C)(C)C)c2)n2nccc2n1` [Example 44], the inhibition at 0.3 µM on cyclooxygenase [2] worked out at 55.9%.
Still for that read-out and setting: as for `CC(C)(C)c1cc(Nc2cc(C3CC3)nc3ccnn23)cc(C(C)(C)C)c1O` [Example 46], the figure is 50.5%.

Usually inhibition stands for how much of the control response was suppressed.
